These results are taken from ChEMBL document CHEMBL3580643, “Structure-Activity Relationships of Neplanocin A Analogues as S-Adenosylhomocysteine Hydrolase Inhibitors and Their Antiviral and Antitumor Activities” (J Med Chem, 2015).

Broadly, the pIC50 is the negative decadic logarithm of the IC50, by convention in mol/L. Usually pEC50 stands for the EC50 on a negative log10 scale, so that one unit is a factor of ten.

Series [1] is described as follows: Cytotoxicity against human SKHEP1 cells assessed as inhibition of cell proliferation after 72 hrs by sulforhodamine B assay. It counts as functional, cell-based. The following applies: SK-HEP1, 72 h.
For the next series, the system named is A549. Description: Cytotoxicity against human A549 cells assessed as inhibition of cell proliferation after 72 hrs by sulforhodamine B assay. It counts as functional, cell-based. To be noted: A549, 72 h. For orientation: In SRB staining, fixed cells bind dye roughly in proportion to their protein.
Series [2] is described as follows: Cytotoxicity against human SNU638 cells assessed as inhibition of cell proliferation after 72 hrs by sulforhodamine B assay. It counts as functional, cell-based. The following applies: SNU-638, 72 h.
For another series, the system named is HCT-116. Briefly: Cytotoxicity against human HCT116 cells assessed as inhibition of cell proliferation after 72 hrs by sulforhodamine B assay. The following applies: HCT-116, 72 h. It counts as functional, cell-based.
The next series concerns MDA-MB-231. Briefly: Cytotoxicity against human MDA-MB-231 cells assessed as inhibition of cell proliferation after 72 hrs by sulforhodamine B assay. It counts as functional, cell-based. The following applies: MDA-MB-231, 72 h.
For another series, the system named is PC-3. Briefly: Cytotoxicity against human PC3 cells assessed as inhibition of cell proliferation after 72 hrs by sulforhodamine B assay. It counts as functional, cell-based. To be noted: PC-3, 72 h.
The target in the next series is Adenosylhomocysteinase (Homo sapiens, UniProt P23526). Description: Inhibition of recombinant human placental AdoHcy hydrolase expressed in Escherichia coli BL21 using AdoHcy as substrate preincubated for 10 mins followed by substrate addition measured after 20 mins by DTNB coupled assay.
Chain of Adenosylhomocysteinase (P23526 whole entry): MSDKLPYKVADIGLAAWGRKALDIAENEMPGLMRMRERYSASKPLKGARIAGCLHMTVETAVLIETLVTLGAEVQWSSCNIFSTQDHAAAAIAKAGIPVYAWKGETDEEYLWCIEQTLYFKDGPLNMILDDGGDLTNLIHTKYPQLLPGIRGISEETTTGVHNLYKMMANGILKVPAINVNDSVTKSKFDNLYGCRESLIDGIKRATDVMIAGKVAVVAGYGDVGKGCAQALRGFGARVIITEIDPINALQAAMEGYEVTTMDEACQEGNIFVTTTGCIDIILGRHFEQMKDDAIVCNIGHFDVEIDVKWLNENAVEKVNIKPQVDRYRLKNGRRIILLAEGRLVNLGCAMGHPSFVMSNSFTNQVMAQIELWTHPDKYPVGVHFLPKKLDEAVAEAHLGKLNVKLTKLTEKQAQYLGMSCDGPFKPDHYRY
In the next series the test system is Picornaviridae. Description: Antiviral activity against picornavirus infected in CB1 cells assessed as inhibition of viral replication after 3 days by MTT assay. To be noted: CB1, 72 h. It counts as functional, organism-based. A general note: Tetrazolium dyes change colour on reduction, which living cells bring about.
A short description of series [3]: Cytotoxicity against CB1 cells (unknown origin) assessed as cell viability up to 100 uM after 3 days by MTT assay. It counts as cell-based. The following applies: cb1, 72 h.
The subject of the next series is HeLa. Briefly: Cytotoxicity against human HeLa cells assessed as cell viability up to 40 uM after 3 days by MTT assay. To be noted: 72 h. It counts as cell-based.
In series [4] the test system is Vesicular stomatitis virus. Description: Antiviral activity against vesicular stomatitis virus infected in human HeLa cells assessed as inhibition of viral replication after 3 days by MTT assay. It counts as functional, organism-based. The following applies: 72 h.

pEC50, pIC50: −log10 of the molar value.

Turning to `Nc1nccc2c1ncn2[C@@H]1C=C(CO)[C@@H](O)[C@H]1O`, the pIC50 in [1] was 6.14; in the series on A549, 5.85; in series [2] it was 6.04; in the series on HCT-116, 6.59; with MDA-MB-231, 6.52; in the series on PC-3, 5.03.

For the compound `Nc1ncnc2c1ncn2[C@@H]1C=C(CCO)[C@@H](O)[C@H]1O`, the pIC50 in [1] was 5.21; with A549, 5.05; in series [2] it was 5.64; in the series with HCT-116 it was 5.76; in the series with MDA-MB-231 it was 5.58; with PC-3, under 4.00.

On to `CNc1ncnc2c1ccn2[C@@H]1C=C(CO)[C@@H](O)[C@H]1O`, for which the pIC50 was 4.00 in series [1]; under 4.00 in the series with A549; under 4.00 in series [2]; under 4.00 on Adenosylhomocysteinase; under 4.00 in the series on HCT-116; 4.31 in the series with MDA-MB-231. The pIC50 in the series on PC-3 is under 4.00.

Consider `OCC1=C[C@@H](n2ccc3c(O)ncnc32)[C@H](O)[C@@H]1O`, for which the pIC50 (in series [1]; in the series on A549; in series [2]; on Adenosylhomocysteinase; in the series with HCT-116; in the series with MDA-MB-231) was under 4.00 each time. The pIC50 with PC-3 was under 4.00.

`Nc1ncnc2c1ccn2[C@@H]1C(F)=C(CO)[C@@H](O)[C@H]1O`: the pIC50 in [1] is 5.86; in the series on A549 it was 4.77; in series [2], 6.02; at Adenosylhomocysteinase, under 4.00; with HCT-116, 6.03; in the series with MDA-MB-231 it was 6.03. The pIC50 in the series with PC-3 was 5.89. In addition, the pEC50 in the series on Picornaviridae is 5.63. For the same compound, the Activity entry in [3] is “Non-toxic”.

For the compound `CNc1ncnc2c1ccn2[C@@H]1C(F)=C(CO)[C@@H](O)[C@H]1O`, the pIC50 (in [1]; with A549; in series [2]; on Adenosylhomocysteinase; in the series with HCT-116; with MDA-MB-231) was under 4.00 throughout. Besides, the pIC50 in the series with PC-3 is under 4.00.

Turning to `OCC1=C(F)[C@@H](n2ccc3c(O)ncnc32)[C@H](O)[C@@H]1O`, the pIC50 (in [1]; with A549; in series [2]; on Adenosylhomocysteinase; in the series with HCT-116; in the series with MDA-MB-231) was under 4.00 each time. In the series with PC-3, the pIC50 was under 4.00.

As for `Nc1ncnc2c1ccn2[C@@H]1C=C(CCO)[C@@H](O)[C@H]1O`, the pIC50 in series [1] is 4.38; with A549, 4.47; in [2] it was 4.52; at Adenosylhomocysteinase, under 4.00; in the series with HCT-116, 4.49; in the series with MDA-MB-231, 4.58. The pIC50 in the series on PC-3 is under 4.00.

For the compound `Nc1ncnc2c1ncn2[C@@H]1C(F)=C(CCO)[C@@H](O)[C@H]1O`, the pIC50 in series [1] was 5.09; in the series with A549, 4.93; in series [2] it was 5.43; at Adenosylhomocysteinase, 6.04; in the series with HCT-116, 5.54; in the series on MDA-MB-231 it was 5.16. For the same compound, the pIC50 with PC-3 was under 4.00.

In the case of `Nc1nccc2c1ncn2[C@@H]1C=C(CCO)[C@@H](O)[C@H]1O`, the pIC50 is 4.54 in series [1]; 4.12 in the series on A549; 4.55 in [2]; 5.42 on Adenosylhomocysteinase; 4.75 with HCT-116; 5.10 in the series on MDA-MB-231. Moreover, the pIC50 in the series with PC-3 is under 4.00.

Regarding `Nc1ncnc2c1ccn2C1C=C(CO)[C@@H](O)[C@H]1O` (single isomer, unassigned) [DEAZANEPLANOCIN A], the pIC50 was 5.93 in series [1]; 5.74 with A549; 5.92 in [2]; under 4.00 at Adenosylhomocysteinase; 4.98 in the series on HCT-116; 6.10 in the series on MDA-MB-231. Also, in the series with PC-3, the pIC50 is 5.79.

On to `Nc1ccn([C@@H]2O[C@H](CO)[C@@H](O)[C@@H]2O)c(=O)n1` [CYTARABINE], for which the pIC50 was 5.67 in series [1]; 5.92 in the series on A549; 5.40 in series [2]; 5.62 in the series on HCT-116; 5.86 in the series on MDA-MB-231; 4.30 with PC-3.

For the compound `COc1cc([C@@H]2c3cc4c(cc3[C@@H](O[C@@H]3O[C@@H]5CO[C@@H](C)O[C@H]5[C@H](O)[C@H]3O)[C@H]3COC(=O)[C@H]23)OCO4)cc(OC)c1O` [ETOPOSIDE], the pIC50 was 5.55 in series [1], 6.40 in the series on A549, 6.52 in series [2] and 5.11 with MDA-MB-231.

With `Nc1ncnc2c1ncn2[C@@H]1C(F)=C(CO)[C@@H](O)[C@H]1O` [FLUORO-NEPLANOCIN A], the pIC50 is 6.10 in [1]; 5.92 in the series with A549; 5.66 in series [2]; 6.62 on Adenosylhomocysteinase; 5.55 in the series with HCT-116; 5.85 in the series on MDA-MB-231. Further, in the series on PC-3, the pIC50 was 5.85. In the series with HeLa, the Activity result is recorded as “Non-toxic”. The pEC50 in series [4] was 6.37.

With `Nc1ncnc2c1ncn2[C@@H]1C=C(CO)[C@@H](O)[C@H]1O` [NEOPLANOCIN A], the pIC50 was 5.35 in series [1]; 5.91 in the series with A549; 6.15 in [2]; 6.33 at Adenosylhomocysteinase; 6.05 in the series with HCT-116; 6.40 with MDA-MB-231. Further, the pIC50 in the series on PC-3 is 5.43.
